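Five concentrations, 48 hours, 96-well plates. GI50 is the concentration that inhibits growth by half. The concentration for full growth arrest is given as TGI.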
Tests used:
Experiment in all cases: NCI-60 cell line screen, 48 h
NCI-H522 lung = system: NCI-H522 lung
KM12 colon = system: KM12 colon
M14 melanoma = system: M14 melanoma
NCI-H226 lung = system: NCI-H226 lung
PC-3 prostate = system: PC-3 prostate
OVCAR-5 ovarian = system: OVCAR-5 ovarian
T-47D breast = system: T-47D breast
U251 CNS = system: U251 CNS
UACC-257 melanoma = system: UACC-257 melanoma
TK-10 renal = system: TK-10 renal
HCT-116 colon = system: HCT-116 colon
NCI-H23 lung = system: NCI-H23 lung
HOP-62 NSCLC = system: HOP-62 NSCLC
UO-31 renal = system: UO-31 renal
ACHN renal = system: ACHN renal
SF-295 CNS = system: SF-295 CNS
OVCAR-4 ovarian = system: OVCAR-4 ovarian
MDA-MB-435 = system: MDA-MB-435
A549 NSCLC = system: A549 NSCLC
HCT-15 colon = system: HCT-15 colon
LOX IMVI melanoma = system: LOX IMVI melanoma
SW-620 colon = system: SW-620 colon
786-0 renal = system: 786-0 renal
COLO 205 colon = system: COLO 205 colon
HL-60(TB) leukemia = system: HL-60(TB) leukemia
UACC-62 melanoma = system: UACC-62 melanoma
SF-268 CNS = system: SF-268 CNS
HT29 colon = system: HT29 colon
RXF 393 renal = system: RXF 393 renal
NCI/ADR-RES ovarian = system: NCI/ADR-RES ovarian
MDA-N = system: MDA-N
SK-MEL-2 melanoma = system: SK-MEL-2 melanoma
MDA-MB-231 breast = system: MDA-MB-231 breast
MALME-3M melanoma = system: MALME-3M melanoma
RPMI-8226 leukemia = system: RPMI-8226 leukemia
CAKI-1 renal = system: CAKI-1 renal
OVCAR-8 ovarian = system: OVCAR-8 ovarian
SK-OV-3 ovarian = system: SK-OV-3 ovarian
A498 renal = system: A498 renal
K-562 leukemia = system: K-562 leukemia
EKVX NSCLC = system: EKVX NSCLC
SK-MEL-28 melanoma = system: SK-MEL-28 melanoma
SNB-19 CNS = system: SNB-19 CNS
SF-539 CNS = system: SF-539 CNS
MCF7 breast = system: MCF7 breast
OVCAR-3 ovarian = system: OVCAR-3 ovarian
HOP-92 NSCLC = system: HOP-92 NSCLC
HCC-2998 colon = system: HCC-2998 colon
SK-MEL-5 melanoma = system: SK-MEL-5 melanoma
BT-549 breast = system: BT-549 breast
NCI-H460 lung = system: NCI-H460 lung
IGROV1 ovarian = system: IGROV1 ovarian
DU-145 prostate = system: DU-145 prostate
SN12C renal = system: SN12C renal
SNB-75 CNS = system: SNB-75 CNS
HS 578T breast = system: HS 578T breast
SR leukemia = system: SR leukemia
MOLT-4 leukemia = system: MOLT-4 leukemia
CCRF-CEM leukemia = system: CCRF-CEM leukemia

`C=C1CC/C=C(\C)C(=O)C[C@@H]2[C@@H]1CC2(C)C` showed a TGI (NCI-H522 lung) of 2.96 µM, a TGI (KM12 colon) of 39.1 µM and a TGI (M14 melanoma) of 19.7 µM. The TGI (NCI-H226 lung) was 42.8 µM, the TGI (PC-3 prostate) was 26.1 µM and the TGI (OVCAR-5 ovarian) was 27.3 µM. The TGI (T-47D breast) was 7.8 µM, the TGI (U251 CNS) was 49.5 µM and the TGI (UACC-257 melanoma) was 16 µM. It also gave a TGI (TK-10 renal) of 17.1 µM, a TGI (HCT-116 colon) of 7.06 µM and a TGI (NCI-H23 lung) of 15.4 µM. It also gave a TGI (HOP-62 NSCLC) of 31.1 µM, a TGI (UO-31 renal) of 7.64 µM and a TGI (ACHN renal) of 8.67 µM. It also gave a TGI (SF-295 CNS) of 33.4 µM, a TGI (OVCAR-4 ovarian) of 6.48 µM and a TGI (MDA-MB-435) of 5.18 µM. It also gave a TGI (A549 NSCLC) of over 56 µM, a TGI (HCT-15 colon) of 3.23 µM and a TGI (LOX IMVI melanoma) of 7.06 µM. It also gave a TGI (SW-620 colon) of 11.5 µM, a TGI (786-0 renal) of 6.69 µM and a TGI (COLO 205 colon) of 3.87 µM. The TGI (HL-60(TB) leukemia) was 0.507 µM, the TGI (UACC-62 melanoma) was 24.2 µM and the TGI (SF-268 CNS) was 52.7 µM. The TGI (HT29 colon) was over 32.7 µM, the TGI (RXF 393 renal) was 4.33 µM and the TGI (NCI/ADR-RES ovarian) was 46.6 µM. The TGI (MDA-N) was 3.16 µM, the TGI (SK-MEL-2 melanoma) was 43.8 µM and the TGI (MDA-MB-231 breast) was 28.6 µM. The TGI (MALME-3M melanoma) was 10.5 µM, the TGI (RPMI-8226 leukemia) was over 100 µM and the TGI (CAKI-1 renal) was 3.01 µM. The TGI (OVCAR-8 ovarian) was 29.7 µM, the TGI (SK-OV-3 ovarian) was over 57.5 µM and the TGI (A498 renal) was over 30 µM. It also gave a TGI (K-562 leukemia) of over 100 µM, a TGI (EKVX NSCLC) of 27.3 µM and a TGI (SK-MEL-28 melanoma) of 6.34 µM. The TGI (SNB-19 CNS) was 25.7 µM, the TGI (SF-539 CNS) was 8.46 µM and the TGI (MCF7 breast) was 5.94 µM. It also gave a TGI (OVCAR-3 ovarian) of 20.7 µM, a TGI (HOP-92 NSCLC) of 6.4 µM and a TGI (HCC-2998 colon) of 12.7 µM. The TGI (SK-MEL-5 melanoma) was 10.5 µM, the TGI (BT-549 breast) was 11.6 µM and the TGI (NCI-H460 lung) was 12 µM. For the same compound, the TGI (IGROV1 ovarian) was 12.9 µM, the TGI (DU-145 prostate) was 16.6 µM and the TGI (SN12C renal) was 13 µM. It also gave a TGI (SNB-75 CNS) of 26.3 µM.
Compound `Oc1[nH]c2ccc(Cl)cc2c1/C=c1/ccc2c(c1)N=C(c1ccc(F)cc1)N=2` has a GI50 (NCI-H522 lung) of 1990 nM, a TGI (NCI-H522 lung) of 4.32 µM and a GI50 (HS 578T breast) of 2310 nM. For the same compound, the TGI (HS 578T breast) was 7.51 µM, the GI50 (KM12 colon) was 2540 nM and the TGI (KM12 colon) was 6.53 µM. For the same compound, the GI50 (M14 melanoma) was 1520 nM, the TGI (M14 melanoma) was 2.98 µM and the GI50 (NCI-H226 lung) was 8.22 µM. It also gave a TGI (NCI-H226 lung) of 23.2 µM, a GI50 (PC-3 prostate) of 2140 nM and a TGI (PC-3 prostate) of 5.65 µM. It also gave a GI50 (OVCAR-5 ovarian) of 4.17 µM, a TGI (OVCAR-5 ovarian) of 14.7 µM and a GI50 (T-47D breast) of 2230 nM. For the same compound, the TGI (T-47D breast) was 6.17 µM, the GI50 (U251 CNS) was 1810 nM and the TGI (U251 CNS) was 3.5 µM. The GI50 (SR leukemia) was 2110 nM, the TGI (SR leukemia) was 5.14 µM and the GI50 (UACC-257 melanoma) was 1890 nM. The TGI (UACC-257 melanoma) was 4.35 µM, the GI50 (TK-10 renal) was 2830 nM and the TGI (TK-10 renal) was 4.88 µM. It also gave a GI50 (HCT-116 colon) of 1490 nM, a TGI (HCT-116 colon) of 2.81 µM and a GI50 (NCI-H23 lung) of 1650 nM. For the same compound, the TGI (NCI-H23 lung) was 3.59 µM, the GI50 (HOP-62 NSCLC) was 1770 nM and the TGI (HOP-62 NSCLC) was 3.23 µM. It also gave a GI50 (UO-31 renal) of 2300 nM, a TGI (UO-31 renal) of 11 µM and a GI50 (ACHN renal) of 3.19 µM. It also gave a TGI (ACHN renal) of 11.9 µM, a GI50 (SF-295 CNS) of 7.02 µM and a TGI (SF-295 CNS) of 30.6 µM. For the same compound, the GI50 (OVCAR-4 ovarian) was 1640 nM, the TGI (OVCAR-4 ovarian) was 3.1 µM and the GI50 (MDA-MB-435) was 1620 nM. The TGI (MDA-MB-435) was 3.45 µM, the GI50 (A549 NSCLC) was 1740 nM and the TGI (A549 NSCLC) was 3.61 µM. For the same compound, the GI50 (HCT-15 colon) was 2040 nM, the TGI (HCT-15 colon) was 4.47 µM and the GI50 (LOX IMVI melanoma) was 1630 nM. The TGI (LOX IMVI melanoma) was 3.01 µM, the GI50 (SW-620 colon) was 1890 nM and the TGI (SW-620 colon) was 3.74 µM. The GI50 (786-0 renal) was 1800 nM, the TGI (786-0 renal) was 3.9 µM and the GI50 (COLO 205 colon) was 2320 nM. The TGI (COLO 205 colon) was 5.23 µM, the GI50 (MOLT-4 leukemia) was 2520 nM and the TGI (MOLT-4 leukemia) was 7.1 µM. The GI50 (HL-60(TB) leukemia) was 2760 nM, the TGI (HL-60(TB) leukemia) was 7.83 µM and the GI50 (UACC-62 melanoma) was 2500 nM. The TGI (UACC-62 melanoma) was 8.06 µM, the GI50 (SF-268 CNS) was 2160 nM and the TGI (SF-268 CNS) was 4.37 µM. The GI50 (HT29 colon) was 1930 nM, the TGI (HT29 colon) was 3.5 µM and the GI50 (RXF 393 renal) was 1890 nM. It also gave a TGI (RXF 393 renal) of 3.72 µM, a GI50 (NCI/ADR-RES ovarian) of 1870 nM and a TGI (NCI/ADR-RES ovarian) of 3.58 µM. For the same compound, the GI50 (SK-MEL-2 melanoma) was 2870 nM, the TGI (SK-MEL-2 melanoma) was 6.81 µM and the GI50 (MDA-MB-231 breast) was 1630 nM. For the same compound, the TGI (MDA-MB-231 breast) was 4.18 µM, the GI50 (MALME-3M melanoma) was 1830 nM and the TGI (MALME-3M melanoma) was 3.95 µM. It also gave a GI50 (RPMI-8226 leukemia) of 2910 nM, a TGI (RPMI-8226 leukemia) of 12.2 µM and a GI50 (CAKI-1 renal) of 4.08 µM. It also gave a TGI (CAKI-1 renal) of 20.3 µM, a GI50 (CCRF-CEM leukemia) of 2070 nM and a TGI (CCRF-CEM leukemia) of 4.93 µM. The GI50 (OVCAR-8 ovarian) was 1960 nM, the TGI (OVCAR-8 ovarian) was 4.26 µM and the GI50 (SK-OV-3 ovarian) was 7.07 µM. For the same compound, the TGI (SK-OV-3 ovarian) was 19.1 µM, the GI50 (A498 renal) was 3.36 µM and the TGI (A498 renal) was 16.5 µM. It also gave a GI50 (K-562 leukemia) of 2110 nM, a TGI (K-562 leukemia) of 4.48 µM and a GI50 (EKVX NSCLC) of 3.37 µM. It also gave a TGI (EKVX NSCLC) of 15.9 µM, a GI50 (SK-MEL-28 melanoma) of 1780 nM and a TGI (SK-MEL-28 melanoma) of 3.48 µM. It also gave a GI50 (SNB-19 CNS) of 2080 nM, a TGI (SNB-19 CNS) of 5.14 µM and a GI50 (SF-539 CNS) of 2240 nM. For the same compound, the TGI (SF-539 CNS) was 5 µM, the GI50 (MCF7 breast) was 1330 nM and the TGI (MCF7 breast) was 2.83 µM. For the same compound, the GI50 (OVCAR-3 ovarian) was 1920 nM, the TGI (OVCAR-3 ovarian) was 3.58 µM and the GI50 (HOP-92 NSCLC) was 11.7 µM. The TGI (HOP-92 NSCLC) was 26.9 µM, the GI50 (HCC-2998 colon) was 4.68 µM and the TGI (HCC-2998 colon) was 15.9 µM. For the same compound, the GI50 (BT-549 breast) was 1380 nM, the TGI (BT-549 breast) was 3.11 µM and the GI50 (NCI-H460 lung) was 2050 nM. The TGI (NCI-H460 lung) was 4.52 µM, the GI50 (IGROV1 ovarian) was 2120 nM and the TGI (IGROV1 ovarian) was 4.42 µM. For the same compound, the GI50 (DU-145 prostate) was 2530 nM, the TGI (DU-145 prostate) was 5.06 µM and the GI50 (SN12C renal) was 2710 nM. The TGI (SN12C renal) was 10.2 µM, the GI50 (SNB-75 CNS) was 1500 nM and the TGI (SNB-75 CNS) was 3.78 µM.

— PubChem BioAssay (NCI)
